PubChem BioAssay AID1985 (Southern Research Specialized Biocontainment Screening …, 2009)

The compounds below were run on S. Typhi PhoP-promoter GFP reporter, fluorescence, 4 h (assay: modified counter assay using GFP fluorescence, PhoP regulon inhibitor project, dose response (AID 1985)).

Row | Compound | IC50 [µM]
1 | O=C(CCN1CCN(c2ccccc2)CC1)N/N=C/c1ccc([N+](=O)[O-])o1 | 70.2
2 | CCn1cc(C(=O)O)c(=O)c2cc(F)c(N3CCN(C(=S)NC(=O)c4ccccc4)CC3)cc21 | 24
3 | O=C1c2ccccc2NC(c2ccc(-c3ccc(Br)cc3)o2)N1O (stereo unspecified) | 81.1
4 | CCn1cc(C(=O)O)c(=O)c2cc(F)c(N3CCN(C(=S)NC(=O)c4ccccc4F)CC3)cc21 | 62.8
5 | O=C1C(SCCO)=C(SCCO)C(=O)c2ccccc21 | 122
6 | O=C(NC1CCCC1)c1ccc(Br)s1 | 34
7 | COC(=O)C1C(O)C(C)C(O)C(C)/C=C\C=C(/C)C(=O)Nc2c(C)c(OC(C)=O)c3c(c2O)C(=O)C(C)=C2OCOC(=C23)/C(C)=C/C(C)(O)C(O)C(C)C1O (stereo unspecified) | 24.4
8 | O=C(N/N=C\c1c[nH]c2ccccc12)c1ccc(O)cc1 | 134
9 | O=C(c1cnn(C(=O)COc2ccccc2F)c1)c1cc(F)ccc1O | 83.3
10 | O=C(Nc1c2ccccc2nc2ccccc12)C(Cl)(Cl)Cl | 43.8
11 | O=C(CCN1CCN(c2ccccc2)CC1)c1ccc(Br)cc1 | 98.6
12 | CC(C)(C)c1ccc(OCCCCCCN2CCNCC2)cc1 | 127
13 | CCCCOc1ccc(NC2=NC3(CCCC3)N=C(N)N2)cc1 | 72.9
14 | O=[N+]([O-])c1ccc(/C=N/NC(=S)Nc2ccc(Cl)cc2Cl)s1 | 25
15 | CC[C@H]1OC(=O)[C@H](C)[C@@H](O[C@H]2C[C@@](C)(OC)[C@@H](O)[C@H](C)O2)[C@H](C)[C@@H](O[C@@H]2O[C@H](C)C[C@H](N(C)C)[C@H]2O)[C@](C)(OC)C[C@@H](C)C(=O)[C@H](C)[C@@H](O)[C@]1(C)O | 125
16 | Clc1ccc(C(c2ccccc2)N2CCNCC2)cc1 (stereo unspecified) | 144
17 | O=C(N/N=C/c1ccc(O)cc1O)C(=O)N/N=C/c1ccc(O)cc1O | 108
18 | COC12C(COC(N)=O)C3=C(C(=O)C(C)=C(N)C3=O)N1CC1C2N1C (stereo unspecified) | 31.2
19 | CC1CCC(C(C)C)C(OC(=O)Cn2c(-c3ccc(Cl)cc3)[n+](C)c3ccccc32)C1 (stereo unspecified) | 144
20 | Cc1cccc(C(=O)NCCC(=O)Nc2ccc(F)c([N+](=O)[O-])c2)c1 | 144
21 | COc1ccc(NC(=O)c2cc(Br)c(Br)s2)cn1 | 23.3
22 | Cc1ccc(CNCCC2=CCCCC2)cc1 | 81.9
23 | Nc1c(Cl)ncnc1N/N=C/c1ccccn1 | 33.4

Row | Compound | IC50 [µM]
24 | C[C@H]1COc2c(N3CCN(C)CC3)c(F)cc3c(=O)c(C(=O)O)cn1c23 | < 0.23
25 | Cc1ccc2nc(/C(C#N)=C\c3ccc([N+](=O)[O-])o3)[nH]c2c1 | 23.3
26 | CN(C)CCCN(C(=O)COc1ccccc1)c1nc2ccc(Cl)cc2s1 | 141
27 | O=C(CNCCC1=CCCCC1)Nc1ccc(N2CCCCCC2)cc1 | 54.2
28 | NC1=NC[C@@H](Cc2ccc(O)cc2)N1CCc1cc(C(F)(F)F)cc(C(F)(F)F)c1 | 106
29 | O=c1c(O)cccc2cc(O)c(O)c(O)c12 | 17.5
30 | CCCc1nnc(NC(=O)c2cn(CC)c3cc(N4CCN(C)CC4)c(F)cc3c2=O)s1 | 41.2
31 | O=C(Nc1ccccc1)Oc1ccc[nH]c1=O | 55.8
32 | CC1(C)N=C(N)N=C(N)N1c1ccc(Oc2ccc(Cl)cc2)c(Cl)c1 | 43
33 | N#C/C(N=Nc1ccccc1O)=N\Nc1ccccc1O | 9.47
34 | O=C(Oc1ccccc1)c1cc2ccccc2o1 | 76.2
35 | NC[C@@H]1O[C@H](C23CC4CC(CC(C4)C2)C3)Cc2c1ccc(O)c2O | 39.8
36 | Cc1ccc(Nc2nc(N)c3ccccc3n2)cc1Cl | 68.5
37 | c1ccc2cc(CSCc3nc4ccccc4[nH]3)ccc2c1 | 103
38 | O=C(/C=C/c1ccccc1)c1ccc(NC2=NCCCS2)cc1 | 117
39 | O=C(/C=C/c1ccccc1Cl)Nc1cccc(O)c1 | 61.7
40 | Clc1ccc(OCCCNCc2ccccc2)c(Br)c1 | 43.8
41 | Cc1cc(C)n(-c2nc(SCCN(C)C)c3c4c(sc3n2)CCCC4)n1 | 80.1
42 | OC(CNCCc1ccc(Cl)cc1Cl)COc1ccccc1 (stereo unspecified) | 71.7
43 | CN1/C(=C\C=C\C2=[N+](C)c3ccc4ccccc4c3C2(C)C)C(C)(C)c2ccccc21 | 3.62
44 | Cc1cccc(OCC(O)Cn2c(=N)n(CCN3CCCCC3)c3ccccc32)c1 (stereo unspecified) | 50.2
45 | C#CCOCCOCCOCCNc1nc(N2CCN(C(=O)[C@H](CCCCN)n3cc([C@@H](N)CC(C)C)nn3)CC2)nc(N2CCN(C(=O)[C@H](Cc3cc4ccccc4[nH]3)n3cc([C@@H](N)Cc4ccc(O)cc4)nn3)CC2)n1 | 54.5
46 | O=C(Oc1ccc[nH]c1=O)c1cc([N+](=O)[O-])cc([N+](=O)[O-])c1 | 46

Row | Compound | IC50 [µM]
47 | Brc1ccc2c(c1)C(OC1CN3CCC1CC3)c1ccccc1CS2 (stereo unspecified) | 95.5
48 | Cc1ccc2nc(N(CCCN(C)C)C(=O)c3sc4ccccc4c3Cl)sc2c1 | 54.7
49 | CCn1cc(C(=O)NCC(C)C)c(=O)c2cc(F)c(N3CCN(C)CC3)cc21 | 30.6
50 | O=C(C[n+]1cc(-c2ccc(Cl)cc2)n2c1CCC2)Nc1nc(-c2ccccc2)cs1 | 36.7
51 | CCCCCCCCCCOC(=O)Cn1c(COc2ccccc2C)[n+](C)c2ccccc21 | 21.3
52 | Cc1cc(N/N=C/c2ccc(O)cc2)c2cccc(C)c2n1 | 80.9
53 | N/C(=N\OS(=O)(=O)c1ccccc1)c1cccnc1 | 9.86
54 | CCN1CCN(C(=O)c2cc3cc(F)ccc3[nH]2)CC1 | 97.5
55 | COc1ccc(N2CC(C(=O)N/N=C/c3cc([N+](=O)[O-])ccc3O)CC2=O)cc1 (stereo unspecified) | 81.2
56 | CCOc1cc(C(c2c(C)[nH][nH]c2=O)c2c(C)[nH][nH]c2=O)cc([N+](=O)[O-])c1O | 75.6
57 | O=C(CC(=O)c1cc(Cl)ccc1O)c1ccccc1 | 128
58 | COc1cc(/C=N/N=C(N)N)ccc1OCc1ccc(Cl)cc1 | 36.7
59 | NC1=NC[C@H](Cc2ccc(O)cc2)N1CCCCC1CCCCC1 | 25.5
60 | CS(=O)(=O)c1ccc2nc(NC(=O)c3ccc(Cl)nc3)sc2c1 | 81.9
61 | CN1CCN(c2cc3c(cc2F)c(=O)c(C(=O)O)cn3CCF)CC1 | 0.444
62 | Oc1c(Br)cc(Br)cc1C=NCc1ccc(F)cc1 | 54.4
63 | CSc1nc2ccc(Cl)cc2[nH]1 | 50.4
64 | CN1CCN(c2c(F)cc3c(=O)c(C(=O)O)cn4c3c2OCN4C)CC1 | < 0.23
65 | CN(C)c1ccc2nc3ccc(=[N+](C)C)cc-3sc2c1 | 22.7
66 | Cc1ccc(-c2c[n+](Cc3ccc(Cl)cc3)c3n2CCC3)cc1 | 90.3
67 | O=C(N/N=C/c1cc(Cl)ccc1O)c1cccnc1 | 28.2
68 | Fc1ccc(CCNCc2ccccc2Cl)cc1 | 69.7
69 | Cc1ccc(Cn2c(=N)n(CC(O)COc3ccccc3)c3ccccc32)cc1 (stereo unspecified) | 83.6

Row | Compound | IC50 [µM]
70 | O=C(/C=C/c1ccccc1)NC(=S)NNC(=O)c1cnccn1 | 146
71 | CC(=O)NC(=S)NNC(=O)c1ccc(Br)cc1 | 33.8
72 | CC1=NN(c2nc3ccccc3[nH]2)C(=O)C1Cc1ccccc1 (stereo unspecified) | 36.5
73 | COc1ccc(Nc2c3ccccc3nc3ccccc23)cc1 | 53.8
74 | Oc1ccc(Cl)cc1Cc1cc(Cl)ccc1O | 36
75 | CCn1cc(C(=O)NCCO)c(=O)c2cc(F)c(N3CCN(C)CC3)cc21 | 16.3
76 | Cc1cc(OCCCCCNCCO)cc(C)c1Cl | 147
77 | O=C(O)/C(=C\C(=O)c1ccccc1)Nc1ccccc1 | 20.5
78 | CC(C)[C@@H]1CC[C@@H](C)C[C@H]1OC(=O)C[n+]1cc(-c2ccc(Cl)cc2)n2c1CCCCC2 | 142
79 | c1ccc(Nc2nc(NCC3CCCO3)c3ccccc3n2)cc1 (stereo unspecified) | 16.8
80 | CNCC[C@H](Oc1cccc2ccccc12)c1cccs1 | 106
81 | CNC(=S)N1CCN(c2c(F)cc3c(=O)c(C(=O)O)cn(C4CC4)c3c2OC)CC1C (stereo unspecified) | 8.49
82 | CN(C)c1ccc(Nc2nc(N)c3ccccc3n2)cc1 | 62.4
83 | N=c1n(CCN2CCCCC2)c2ccccc2n1CC(O)COc1ccccc1 (stereo unspecified) | 90.2
84 | CN(C)CCCn1c(SCC(=O)N2c3ccccc3Sc3ccccc32)nc2ccccc2c1=O | 145
85 | CC[n+]1c(/C=C/C=C/c2ccc(N(C)C)cc2)sc2ccccc21 | 35.7
86 | CCOC(=O)c1ccc(CNCc2ccc(Br)cc2)cc1 | 53.8
87 | [O-][n+]1c2c(c3c4non(O)c4ccc31)CCCC2 | 130
88 | CSc1ccc2c(c1)C(N1CCN(C)CC1)Cc1ccc(F)cc1S2 (stereo unspecified) | 51.8
89 | CC(NCC(O)COc1ccc2ccccc2c1)c1ccccc1 (stereo unspecified) | 132
90 | CCN1CCN(Cc2ccc(NC(=O)c3cc(NC(=O)c4cc(-c5ccc(OC)cc5)n[nH]4)cc(OC)c3)cc2C(F)(F)F)CC1 | 102
91 | CCN(CC)c1ccc(/C=N/NC(=O)c2ccc3nc[nH]c3c2)c(O)c1 | 46.6
92 | NC(=O)SCC(=O)Nc1ccc(Cl)c(Cl)c1 | 52.2

Row | Compound | IC50 [µM]
93 | Cc1ccccc1C(=O)N/N=C/c1ccc([N+](=O)[O-])s1 | 29
94 | c1ccc(CN2CCN(c3ncnc4c3[nH]c3ccccc34)CC2)cc1 | 103
95 | CN1CCN(C(c2ccc(C(F)(F)F)cc2)c2ccc3cccnc3c2O)CC1 (stereo unspecified) | 34.9
96 | N#Cc1c(-c2ccccc2)ccn(Cc2cccc(Cl)c2)c1=O | 21.2
97 | O=[N+]([O-])c1cc(O)c2ncccc2c1 | 12.1
98 | O=C(CCN1CCN(c2ccccc2F)CC1)c1ccc(Br)cc1 | 43.4
99 | CC(C)(c1ccccc1)c1ccc(OCCCN2CCNCC2)cc1 | 114
100 | CN1CCC(OC(=O)c2ccc(Br)cc2)CC1 | 58.3
101 | CC(C)Oc1ccc(Cc2cnc(N)nc2N)cc1 | 50.3
102 | O=C(Nc1nonc1NC(=O)c1cccs1)c1cccs1 | 100
103 | Cc1cc([N+](=O)[O-])cc(/C=N\NC(=O)C2COc3ccccc3O2)c1O (stereo unspecified) | 23.3
104 | C#CCOCCOCCOCCNc1nc(N2CCN(C(=O)CCCCCCCCCCNC(=O)[C@H](CCCCN)n3cc(C[C@@H](C)CC)nn3)CC2)nc(N2CCN(C(=O)CCCCCCCCCCNC(=O)[C@H](CCCN=C(N)N)n3cc(C[C@@H](C)CC)nn3)CC2)n1 | 68.2
105 | O=C(O)c1cn(-c2ccc(F)cc2)c2cc(Cl)c(F)cc2c1=O | 89.8
106 | CN(C)CC/C=C1/c2cc(F)ccc2Sc2ccc(Cl)cc21 | 84.9
107 | Oc1[nH]c2ccccc2c1N=NC(=S)N1CCOCC1 | 17.4
108 | CCCCCCCCCCOC(=O)Cn1c(COc2cccc(C)c2)[n+](C)c2ccccc21 | 15.9
109 | Cn1c(N/N=C/c2c[nH]c3ccccc23)nc2ccccc21 | 113
110 | COc1cc(C(=O)O/N=C2\C=CC(=O)C(C)=C2)cc(OC)c1OC | 131
111 | COc1cc(/C=C2/C(=O)NN(c3ccc(F)cc3)C2=O)cc([N+](=O)[O-])c1O | 34.7
